# Measurements: a melting point compilation (Tetko et al.; mined from patent text by program, amines drawn as free bases though some values may be those of a salt)
row,melting point [°C],Structure (SMILES)
1,182,Cc1ccccc1NC(=O)c1c(Cl)cccc1Cl
2,117,C=CCOc1ccc2c(C)c(F)c(=O)oc2c1C
3,127 to 129,CCOC(=O)CN(C)C(=O)c1ccsc1C(=O)c1ccc(F)cc1
4,106 to 108,O=[N+]([O-])c1ccc2c(c1)SC(c1ccc(Cl)cc1Cl)O2 (stereo unspecified)
5,124 to 125,Cc1cnc(CNC(=O)CCc2cnoc2-c2ccc(Cl)cc2)cn1
6,185 to 187,CC(=O)SCC(CC(C)C)C(=O)Nc1cc(C)cc(C(=O)O)c1 (stereo unspecified)
7,182 to 186,COc1cc2c(Nc3ccc(Cl)cc3F)ncnc2cc1OCCSc1ccncc1
8,196 to 198,CC(=O)NC(=Cc1ccc(C#N)cc1)C(=O)N[C@H](C(=O)O)C1CCCCC1
9,103 to 106,Cc1ccc(N2CCCN(C(=O)OC(C)(C)C)CC2)cc1[N+](=O)[O-]
10,124 to 127,CC(C)(C)OC(=O)N1C2CCC1CN(CCCNc1ccc(C#N)cc1)C2
11,59 to 61,Cc1cc(C(=O)OC2CC(C)(C)NC(C)(C)C2)c(C)o1
12,158 to 160,O=C(CC1c2ccccc2C(=O)N1C1CCCCC1)N1CCCCC1 (stereo unspecified)
13,83 to 86,OC(CCc1cccnc1)COc1ccc(-c2ccccc2)cc1 (stereo unspecified)
14,150 to 153,O=c1[nH]nc(CCCN2CCN(c3cccc(Cl)c3)CC2)n1CCOc1ccccc1
15,72 to 74,FC(F)(F)c1cc(C(F)(F)F)cc(P(=S)(S)c2cc(C(F)(F)F)cc(C(F)(F)F)c2)c1
16,> 300,O=C1C2=C(Nc3ccccc3C2)c2ccccc21
17,137 to 138,N#Cc1ccc(OCc2ccc3c(c2)OCO3)cc1OC(C(=O)O)c1ccccc1C(F)(F)F (racemic)
18,159 to 161,COc1cc(C(=O)O)c(N)cc1OCc1ccccc1
19,140 to 141,CC(=N)Nc1ccccc1N1CCOCC1
20,107 to 110,CCOC(=O)C(=O)c1cc(Cl)cc2cccnc12
21,> 250,COc1ccccc1CN[C@H]1CCCN[C@H]1c1ccc2ccccc2c1 (relative stereo)
22,137 to 138,CCN1C(=O)CCc2cnc(Nc3ccccc3)cc21
23,245 to 247,O=C(Cc1ccc(O)c([N+](=O)[O-])c1)N[C@H]1C[C@H](C(=O)O)Nc2cc(Cl)cc(Cl)c21 (relative stereo)

row,melting point [°C],Structure (SMILES)
1,224 to 226,CN(c1cccc2cc(-c3ncc(CCC(=O)NN)s3)[nH]c12)S(=O)(=O)c1cccs1
2,143 to 144,C/C(NCC(C)(C)C)=C(\C#N)C(N)=S
3,154 to 155,C=CCOc1ccccc1OCC(O)CNC1CCC(N2CCNC2=O)CC1 (stereo unspecified)
4,307,Cc1nc(NC(=O)c2cnn3c(C(F)(F)F)cc(-c4ccc(Cl)c(Cl)c4)nc23)sc1S(N)(=O)=O
5,150 to 154,CSC(N)=C(CCN1CCC(c2noc3cc(F)ccc23)CC1)[N+](=O)[O-]
6,257 to 258,NS(=O)(=O)c1ccc(-n2nc(C(F)(F)F)c3c2-c2ccccc2CC3)cc1
7,114 to 118,CNC(=S)NN=C(CCCNC(=O)c1ccccc1)c1ccccc1
8,97 to 99,N#CCN1CCCC(OC(c2ccccc2)c2ccccc2)C1 (stereo unspecified)
9,147 to 149,O=C(c1cccc(Cl)c1)N1CCCN(CC2=Nc3cccc4c(=O)[nH]nc(c34)N2)CC1
10,266 to 267,CCNc1cc(NS(=O)(=O)c2ccc(N)cc2)nc(NC(C)C)n1
11,194 to 198,CN(CC(=O)O)CC(=O)Nc1cc(Cc2n[nH]c(=O)c3ccccc23)ccc1F
12,83 to 84,COC(=O)C(Oc1ccc(C(F)(F)F)cc1)c1ccc(OCCCOc2ccc(Cl)cc2)cc1 (stereo unspecified)
13,122 to 126,O=C(O)CCc1c(Br)cccc1C(F)(F)F
14,210 to 211,CC(C)C1(C)NC(c2nccc(O)c2C(=O)O)=NC1=O (stereo unspecified)
15,200 to 202,O=C(O)Cn1c(=O)n(Cc2ccccc2)c2ccccc21
16,146 to 147,Cc1ccc(S(=O)(=O)N2CC(O)CC2C(=O)O)cc1 (stereo unspecified)
17,92 to 93,CN(C(=O)OC(C)(C)C)c1cc(Oc2ccc(C(F)(F)F)cc2)ccc1[N+](=O)[O-]
18,142 to 144,O=c1ccc(Cc2cccnc2)c[nH]1
19,208,CC(C)(O)CC(=O)N[C@H]1CC[C@H](CCN2CCN(c3nccc4c3CCO4)CC2)CC1
20,166 to 168,N#Cc1ccc(NC(=O)CBr)cc1
21,166 to 168,CCCCc1ncc(C(=O)OC)c(=O)n1Cc1ccc(-c2ccccc2C(=O)O)cc1
22,92 to 96,CC(C(=O)O)c1ccc(OCCNC(=O)C2Cc3ccccc3N2S(=O)(=O)c2ccc(-c3cccc(C(F)(F)F)c3)cc2)cc1 (stereo unspecified)
23,114 to 115,C=CSc1nc(-c2ccc(OC)cc2)c(-c2ccc(OC)cc2)[nH]1

row,melting point [°C],Structure (SMILES)
1,159 to 161,NC(=O)c1nnn(C2OC(CO)C(O)C2O)c1N (stereo unspecified)
2,145 to 148,C=C(c1ccc(-n2ccnc2)nc1)C(O)(Cn1cncn1)c1ccc(F)cc1F (stereo unspecified)
3,219 to 232,COc1ccc(S(=O)(=O)Nc2cccc3c2Nc2ccc(F)c(O)c2CO3)cc1
4,172 to 174,CC[C@H](C)[C@H](OCc1ccccc1)[C@H]1[C@H]([N+](=O)[O-])[C@@H]([C@@H](OCc2ccccc2)C(C)C)N[C@@H]1C(=O)O
5,116 to 118,CCOC(=O)COc1cc2c(c(Cl)c1Cl)C(=O)C(CC)C2 (stereo unspecified)
6,152 to 155,OC(COc1ccccc1-c1nc2ccccc2s1)CN1CCN(C(c2ccccc2)c2ccccc2)CC1 (stereo unspecified)
7,147 to 148,Cc1ccc(N(c2ccccc2)c2ccc3c4c(cccc24)CC3)cc1
8,112 to 117,Nc1sc2c(c1C(=O)c1ccco1)CCN(Cc1ccccc1)C2
9,142 to 144,O=S(=O)(Nc1ccc(Cl)cc1-c1cc(-c2ccc(Cl)cc2Cl)on1)C(F)(F)F
10,86 to 88,CC(C)(C)OC(=O)N1CC2CC(CN(CC(O)COc3ccccc3)C2)C1 (stereo unspecified)
11,221 to 223,O=C1COc2ccc([N+](=O)[O-])cc2N1
12,114 to 115,COc1ccc(CNc2c(C)c(C)c3c(c2C)C(c2ccc(F)cc2)C(C)(C)O3)cc1 (stereo unspecified)
13,201 to 203,O=c1c2c([nH]c3ccccc13)C(C1Cc3ccccc3O1)N(c1ncc(-c3ccccn3)cn1)C2 (stereo unspecified)
14,158,Nc1ccc(CC2CCN(S(=O)(=O)c3ccccc3)CC2)cc1
15,73 to 74,CCCCCCCCS(=O)(=O)C(Cl)S(N)(=O)=O (stereo unspecified)
16,115 to 117,CN1C(=O)CCN(c2ccc(C(F)(F)F)cc2)C1=O
17,95 to 96,O=C1c2ccccc2CCN1O
18,106,CCCCCCCCCCCCCCCCOC(=O)C=CC(=O)NC(N)=O
19,96 to 99,CCOCC(=NNc1ccc(C(F)(F)F)cc1)C(=O)O
20,209,Cc1cc2cc(CN3CCCCCC3)cnc2cc1NC(=O)c1ccc(-c2ccc(Cl)cc2)cc1F
21,209 to 210,Cc1ccn(-c2ccc(C)c(C(=O)N3Cc4cccnc4Nc4ccccc43)c2)n1
22,> 230,COc1cc(-n2c(=O)cc(C(F)(F)F)[nH]c2=O)ccc1C#N
23,115,COc1cc(C(=O)c2ccc(C(F)(F)F)cc2)cc([N+](=O)[O-])c1OC

row,melting point [°C],Structure (SMILES)
1,203 to 204,CC1(C)CC(=C(c2ccc(O)cc2)c2ccc(OCCCC(=O)O)cc2)CC(C)(C)C1
2,165 to 167,Cn1c(COc2ccc(CC3SC(=O)NC3=O)cc2)nc2ccc(OCCc3ccc(C(C)(C)C)c(NC(=O)Nc4ccc(C(F)(F)F)cc4)c3)cc21 (stereo unspecified)
3,74 to 78,O=[N+]([O-])c1ccc(Oc2ccc(C(F)(F)F)cc2Cl)cc1SCl
4,146 to 147,CC1(C)OCC(Cc2ccc(C=Cc3ccc([N+](=O)[O-])cc3)cc2)O1 (stereo unspecified)
5,232 to 234,Cc1ccc(CCC(=O)c2c(O)c3cccnc3n(-c3ccccc3)c2=O)cc1
6,260 to 262,CC(C)CNC(=O)C(C)NC(=O)C(C)NC(=O)C(C)NC(=O)OCc1ccccc1 (stereo unspecified)
7,68 to 70,C=CC(Cc1ccccc1)(C(=O)O)N(Cc1ccccc1)C(=O)OCc1ccccc1 (stereo unspecified)
8,243 to 245,Cc1cccc(Cl)c1NC(=O)NCc1ccc2c(c1)CN(C1CCC(=O)NC1=O)C2=O (stereo unspecified)
9,122 to 124,CCCCCC1(Cl)Cc2cc(OCC(=O)O)c(Cl)c(Cl)c2C1=O (stereo unspecified)
10,97 to 105,CCOC(=O)CCN(Cc1ccc(OC)c(OC)c1)C(=O)CN(C)C(=O)Cc1ccc(NC(=O)Nc2ccccc2C)c(OC)c1
11,218 to 220,Nc1c(-c2ccc(Oc3ccccc3)cc2)nc2ccccc2c1C(=O)O
12,106 to 107,c1ccc(C(Oc2ccc(-c3nc(COc4ccc(CCCn5ccnc5)cc4)co3)cc2)c2ccccc2)cc1
13,141 to 142,CC(=O)COc1cc2c3ccccc3n(Cc3ccccc3)c2cn1
14,307,Nc1ncc(-c2ccc(=O)[nH]n2)c(-c2ccc(F)c(F)c2)n1
15,168 to 171,COc1ccc(CNC(=O)c2cc3c(=O)n(CC#Cc4ccccc4)c(=O)n(C)c3s2)cc1
16,78 to 82,CCN1C(=O)Cc2cc(Cl)cnc21
17,220 to 222,Cc1ccc(C(=O)NC(NC(=NC#N)Nc2ccccc2F)C(Cl)(Cl)Cl)cc1 (stereo unspecified)
18,173 to 175,COc1ccc(C(=O)N2c3ccccc3C(n3c4ccccc4c4ccccc43)CC2CCCCCN(C)C(C)=O)cc1OC (stereo unspecified)
19,129 to 131,Nc1ccc2c(n1)CCO2
20,235 to 237,CC1=CC(N)=NC(c2ccccc2C(F)(F)F)N1c1n[nH]c2ccccc12 (stereo unspecified)
21,78 to 80,CC(CC(=O)O)CC(=O)NCCc1ccccc1 (stereo unspecified)
22,192 to 193,CCOc1c(Cc2c[nH]c3ccccc23)[nH]c(=O)c(CC(C)C)[n+]1[O-]
23,194 to 196,CC1Cc2cc3c(cc2C(c2ccc([N+](=O)[O-])cc2)=NN1C1=NCCO1)OCO3 (stereo unspecified)

row,Structure (SMILES),melting point [°C]
1,Cc1cc(O)c2c(c1)C(C)(C)CCC2(C)C,133 to 134
2,O=C(O)Cc1ccc(Cn2cc(C(=O)C(=O)NC3=CC(=O)OC3)c3ccccc32)cc1,> 270
3,CN1CCN(Cc2cccc(-c3ccc(-c4cn([C@H]5CN6CCC5CC6)nn4)s3)c2)CC1,155
4,OC(CCN1CC=C(c2ccc(Cl)cc2)CC1)c1ccc(Cl)cc1Cl (stereo unspecified),96 to 98
